One experiment has as its system SH-SY5Y cells. The experiment is described as follows: Autophagic flux with tandem reporter mCherry-GFP-LC3B. The experiment is classed as cell-based, human. Conditions: Aβ 1 µM, 24 h, n = 8, N = 4; for Mander's overlap coefficient, R, of Aβ with GFP-positive vesicles / Mander's overlap coefficient, R, of Aβ with mCherry-positive vesicles: mean ± S.D. The method, then: SH-SY5Y cells were transfected with either GFP-LC3-LC3Δ-RFP or mCherry-GFP-LC3B tandem constructs (0.5 μg/well +1 µl transfection reagent − 24 well plate) with Lipofectamine 2000 (Life Technologies, 11668019) in OptiMEM (Life Technologies, 11058021) in DMEM/F-12, FCS^− PS^− media. After 8 h, FCS^− PS^− media was changed to normal culture media, respectively. Transfection efficiency was around 50–60% in all analyzed coverslips.
(§1) SH-SY5Y cells seeded on D1, were treated with Aβ variants (1 μM) on D3 in DMEM/F-12 media without serum and antibiotics. Control treatment included treatment with equal volume of 10 mM NaOH solution used for preparing the Aβ stock solutions, in respective cell culture medium. SH-SY5Y cells, after 16 h of transient expression of the reporter constructs, were treated with different Aβ variants, autophagy modulator substrates and respective controls in DMEM/F-12, FCS^− PS^− media for the mentioned time points. After treatment, cells were washed twice with PBS and with 0.025% trypsin-EDTA in PBS to get rid of cell bound Aβ, followed by subsequent washings with PBS again. Cells were either collected by scraping using a cell-scraper or fixed with 4% PFA-PBS for 15 min at RT, for further immunocytochemistry experiments. Collected treatment media was centrifuged at 1000 g for 5 min, pellet discarded and supernatant frozen at −20°C until further usage.
All images were processed and analyzed using Fiji ImageJ software. Mander’s overlap coefficient (Figure 1B–D; Figure 2B–F; Figure 4B–F; Figure 6E; S2B, D; S4B, D; S6D, F) analysis was done using the colocalization processing module of the Fiji ImageJ plugin. Distance from the plaque core (Figure 1B) was measured using the concentric circles plugin module. Fluorescence intensity of the green channel (Figure S3A-B), and the number of neurons positive for Aβ signals (Figure S3-D) were quantified using the processing module of Keyence software. Intensity analysis (Figure S4E-I) was performed by manually selecting the region of interest (ROI) and measuring the intensity of the individual channels in the selected area. RFP/GFP (Figure 6A) and LysoSensor Green/Blue (Figure 7A) ratiometric images were created by using the image calculator module. Intensity of green and red channel for a particular ROI was calculated and ratios of the individual values were computed (Figure 6B and S7A). For computing the number of mCherry^+GFP^± vesicles or per cell (Figure 6D and S7B), cell outline was drawn manually and number of vesicles per cell (nucleus count – DAPI) was calculated. Similarly, the number of perinuclear and peripheral LAMP2-positive lysosomes or percentage of LAMP2 compartments containing Aβ was computed using the concentric circle processing module (Figure 7D). Due to slight variability in transfection efficiency or the number of cells in different experimental set-ups, the readings from each experiment were averaged and normalized to the control cells from that particular set. Average values from each experiment were normalized to the respective controls in the same set. Values from independent experiments were then computed and values are represented as independent data points.

In experiment [1] the test system is primary cortical neurons. The experiment is described as follows: Subcellular fractionation by differential centrifugation and Aβ ELISA. The following applies: Aβ 500 nM, 4 h; for Aβ levels in the isolated membrane fraction (16,100 g pellet): ELISA 82E1, n = 6, N = 3. Format: cell-based, mouse. The method, then: [Worded in the source for another cell line; used here, by the source, with some conditions changed.] as §1
Cells were collected by scraping and mechanically homogenized in hypotonic D buffer (10 mM Tris-HCl, pH 7.4, 10 mM NaCl, 0.1 mM EGTA, 25 mM glycerol 2-phosphate, 1 mM DTT) containing protease and phosphatase inhibitors by repeated suspension through a 23 G × 1” needle. Post-nuclear supernatant (PNS) was collected by centrifugation of the mechanically homogenized cellular material at 2,000 g for 5 min. The pellet was the nuclear material. […] The nuclear fraction was the supernatant collected after centrifugation at 16,100 g for 15 min. The PNS collected from the first step was centrifuged at 16,100 g for 60 min, and supernatant was used as the crude cytosolic fraction. The pellet contained the membrane materials, which were re-homogenized in hypotonic D buffer and again centrifuged at 16,100 g for 60 min. The supernatant was discarded, pellet was resuspended in STEN-lysis buffer (20 mM Tris-HCl, pH 7.5, 150 mM NaCl, 1 mM EDTA, 1 mM EGTA, 1% Triton X-100, 2.5 mM sodium pyrophosphate [Sigma Aldrich, P1835], 1 mM β-glycerophosphate [Sigma Aldrich, G9422]) containing protease and phosphatase inhibitors, and the membrane fraction was the supernatant collected after centrifugation at 16,100 g for 15 min. The crude cytosolic fraction was then further fractionated at 100,000 g for 70 min at 4°C under vacuum. The resultant supernatant was the soluble cytosolic fraction. The pellet was resuspended in STEN lysis buffer and centrifuged at 16,100 g for 15 min. The resultant supernanant represented the insoluble cytosolic fraction.
Wells were further tapped dry and incubated with 4G8-biotin/82E1-biotin detection antibodies (0.05–0.1 μg/well) at RT for 2 h followed by subsequent washing and incubation with streptavidin conjugated HRP complex (1:5000) for another 2 h. Wells were then washed thoroughly four times and filled with 100 µl of 3,3,5,5-tetramethylbenzidine substrate (TMB; ThermoFisher Scientific, N301) in each well and incubated at 25°C until sufficient blue color developed (time ranged from 2–15 min depending on the different capture antibodies used in the experiment). 100 µl of stop solution (4 M H2SO4) was added to each well. Absorbance values from each well were read at a Tecan plate reader at a wavelength of 450 nm and background measurement at 620 nm. Multiple readings were recorded for a single well and averaged. In each experiment, each sample was analyzed in technical duplicate/triplicate wells as indicated and average values from an independent experiment are presented (Figures 1E, 3G, SA-D and Table S2).
In general terms: In an ELISA, binding on a coated surface is turned into a signal by an enzyme label.

The test system of experiment [2] is primary cortical neurons. The experiment is described as follows: Immunocytochemistry of surface associated and internalized Aβ. Format: cell-based, mouse. Conditions: Aβ 500 nM, 4 h; antibody 82E1; ~200 neurons, N = 4.

With “amyloid-β phosphorylated at serine residue 8 [p-Ser8Aβ]”, the “Number of mCherry+ GFP+ vesicles per cell” value in the experiment with SH-SY5Y cells (compared to control and to p-Ser26Aβ treated cells) is on record as “significantly higher”. For the same substance, in the experiment with SH-SY5Y cells, the “Mander's overlap coefficient, R, of Aβ with GFP-positive vesicles” value was found to be 0.56 ± 0.10; the “Mander's overlap coefficient, R, of Aβ with mCherry-positive vesicles” value came out at 0.57 ± 0.06; the “Number of mCherry+ GFP− vesicles per cell” value is “significantly least”. In the experiment on primary cortical neurons [1], the “Aβ levels in the isolated membrane fraction (16,100 g pellet)” value was “highest levels”. In addition, the “Aβ levels in the 100,000 g pellet (insoluble cytosolic fraction)” value in the experiment with primary cortical neurons [1] (ELISA, compared to npAβ and p-Ser26Aβ) is on record as “significantly higher”. Further, the “Aβ levels in the 100,000 g supernatant (soluble cytosolic fraction)” value in the experiment on primary cortical neurons [1] (ELISA, compared to p-Ser26Aβ) was “significantly lower”. In addition, the “Fluorescence intensities of Aβ signals in unpermeabilized and permeabilized cells (binding to neuronal membranes and intraneuronal accumulation)” value (from here on “Fluorescence intensities of Aβ signals”) with primary cortical neurons [2] is listed as “highest fluorescence intensities”.
“amyloid-β phosphorylated at serine residue 26 [p-Ser26Aβ]”: in the experiment with SH-SY5Y cells, the “Mander's overlap coefficient, R, of Aβ with GFP-positive vesicles” value was found to be 0.30 ± 0.05; the “Mander's overlap coefficient, R, of Aβ with mCherry-positive vesicles” value is listed as 0.70 ± 0.05; the “Number of mCherry+ GFP− vesicles per cell” value is recorded as “significantly higher number”. The “Aβ levels in the isolated membrane fraction (16,100 g pellet)” value with primary cortical neurons [1] was “significantly lower”. The “Aβ levels in the total cytosolic fraction (supernatant after 16,100 g spin)” value in the experiment with primary cortical neurons [1] (ELISA, followed by p-Ser8Aβ and npAβ) was “highest levels”. For the same substance, the “Fluorescence intensities of Aβ signals” value with primary cortical neurons [2] was “followed by p-Ser26Aβ”.
“non-phosphorylated amyloid-β [npAβ, reference compound]”: in the experiment on SH-SY5Y cells (compared to control cells), the “Ratio of mCherry:GFP fluorescence intensities” value is given as “not significantly altered”. Besides, in the experiment with SH-SY5Y cells, the “Mander's overlap coefficient, R, of Aβ with GFP-positive vesicles” value came to 0.40 ± 0.05 and the “Mander's overlap coefficient, R, of Aβ with mCherry-positive vesicles” value is 0.61 ± 0.04. Besides, the “Aβ levels in the isolated membrane fraction (16,100 g pellet)” value with primary cortical neurons [1] was “significantly lower”. Further, in the experiment with primary cortical neurons [2], the “Fluorescence intensities of Aβ signals” value is “least”.
